Key:
HL-60 = experiment: Antiproliferative activity against human HL60 cells harboring wild-type FLT3 measured after 72 hrs by MTT assay; format: functional, cell-based; settings: HL-60, 72 h
[1] = biological target: T1, Receptor-type tyrosine-protein kinase FLT3 (Homo sapiens, UniProt P36888)
T1 sequence (P36888 whole entry): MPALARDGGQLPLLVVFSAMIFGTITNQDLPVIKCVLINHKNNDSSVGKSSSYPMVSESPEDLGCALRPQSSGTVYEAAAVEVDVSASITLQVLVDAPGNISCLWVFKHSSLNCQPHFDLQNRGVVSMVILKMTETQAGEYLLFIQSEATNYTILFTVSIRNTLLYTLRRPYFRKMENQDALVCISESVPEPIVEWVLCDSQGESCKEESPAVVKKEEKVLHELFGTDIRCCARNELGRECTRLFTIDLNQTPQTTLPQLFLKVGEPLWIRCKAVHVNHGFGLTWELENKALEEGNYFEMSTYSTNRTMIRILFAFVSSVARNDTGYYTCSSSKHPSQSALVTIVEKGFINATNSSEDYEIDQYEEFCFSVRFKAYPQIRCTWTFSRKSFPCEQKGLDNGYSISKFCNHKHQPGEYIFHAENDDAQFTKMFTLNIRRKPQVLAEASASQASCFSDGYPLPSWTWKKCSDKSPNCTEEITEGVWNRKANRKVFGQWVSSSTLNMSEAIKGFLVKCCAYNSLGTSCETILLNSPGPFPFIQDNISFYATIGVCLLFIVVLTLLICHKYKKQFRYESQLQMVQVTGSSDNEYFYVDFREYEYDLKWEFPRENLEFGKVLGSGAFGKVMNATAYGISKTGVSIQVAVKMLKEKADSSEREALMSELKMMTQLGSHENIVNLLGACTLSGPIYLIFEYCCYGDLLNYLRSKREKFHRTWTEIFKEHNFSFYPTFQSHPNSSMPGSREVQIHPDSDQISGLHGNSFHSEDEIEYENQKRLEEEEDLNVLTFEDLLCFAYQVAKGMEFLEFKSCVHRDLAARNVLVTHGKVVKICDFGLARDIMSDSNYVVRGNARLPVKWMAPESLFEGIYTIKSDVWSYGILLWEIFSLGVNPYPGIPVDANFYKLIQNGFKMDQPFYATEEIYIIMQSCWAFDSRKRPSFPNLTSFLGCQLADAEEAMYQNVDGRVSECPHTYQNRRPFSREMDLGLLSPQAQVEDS

BaF3 [2] = experiment: cells; settings: Mus musculus, BaF3, 72 h
Description: Antiproliferative activity against mouse BAF3 cells harboring FLT3-ITD-F691L mutant measured after 72 hrs by MTT assay

MV4-11 = experiment: cells; settings: Homo sapiens, MV4-11, 72 h
Description: Antiproliferative activity against human MV4-11 cells harboring FLT3-ITD mutant measured after 72 hrs by MTT assay

BaF3 [3] = experiment: cells; settings: Mus musculus, BaF3, 72 h; remark: listed apart in the source
Description: Antiproliferative activity against mouse BAF3 cells harboring FLT3-ITD-D835V mutant measured after 72 hrs by MTT assay

BaF3 [4] = experiment: cells; settings: Mus musculus, BaF3, 72 h; remark: listed apart in the source
Description: Antiproliferative activity against mouse BAF3 cells harboring FLT3-ITD mutant measured after 72 hrs by MTT assay

MOLM-13 = experiment: cells; settings: Homo sapiens, MOLM-13, 72 h
Description: Antiproliferative activity against human MOLM13 cells harboring FLT3-ITD mutant measured after 72 hrs by MTT assay

RS4-11 = experiment: Antiproliferative activity against human RS4:11 cells harboring wild-type FLT3 measured after 72 hrs by MTT assay; format: functional, cell-based; settings: RS4-11, 72 h

| IC50 (HL-60) | IC50 [1] | IC50 (BaF3 [2]) | IC50 (MV4-11) | IC50 (BaF3 [3]) | IC50 (BaF3 [4]) | IC50 (MOLM-13) | IC50 (RS4-11) | SMILES |
| --- | --- | --- | --- | --- | --- | --- | --- | --- |
| > 1000 nM | 32 nM | 39.4 nM | 1.98 nM | 69.7 nM | 5.57 nM | 0.58 nM | > 1000 nM | COCCn1cc(-c2ccc(NC(=O)Nc3cc(C(C)(C)C)on3)c(F)c2)c2c(N)ncnc21 |
| > 1000 nM | 32 nM | 90.9 nM | 2.16 nM | 36.8 nM | 7.25 nM | 1.51 nM | > 1000 nM | CC(C)(C)c1cc(NC(=O)Nc2ccc(-c3cn(C4CCCC4)c4ncnc(N)c34)cc2)no1 |
| > 1000 nM | 64 nM | 148 nM | 5.84 nM | 361 nM | 8.65 nM | 2.05 nM | > 1000 nM | CCC#CCn1cc(-c2ccc(NC(=O)Nc3cc(C(C)(C)C)on3)cc2)c2c(N)ncnc21 |
| > 1000 nM | 22 nM | 31.5 nM | 2.21 nM | 112 nM | 4.26 nM | 2.33 nM | > 1000 nM | CC(C)(C)c1cc(NC(=O)Nc2ccc(-c3cn(CCC#N)c4ncnc(N)c34)cc2F)no1 |
| > 1000 nM | 34 nM | 209 nM | 2.18 nM | 112 nM | 5.69 nM | 1.43 nM | > 1000 nM | CCCCn1cc(-c2ccc(NC(=O)Nc3cc(C(C)(C)C)on3)cc2)c2c(N)ncnc21 |
| > 1000 nM | 69 nM | 200 nM | 2.94 nM | 140 nM | 5.95 nM | 2.22 nM | > 1000 nM | C=CCCCn1cc(-c2ccc(NC(=O)Nc3cc(C(C)(C)C)on3)cc2)c2c(N)ncnc21 |
| > 1000 nM | 37 nM | 98.6 nM | 1.47 nM | 173 nM | 3.21 nM | 0.117 nM | > 1000 nM | CCOCCn1cc(-c2ccc(NC(=O)Nc3cc(C(C)(C)C)on3)cc2)c2c(N)ncnc21 |
| > 1000 nM |  | > 500 nM | 2.54 nM | 385 nM | 8.95 nM | 4.43 nM | > 1000 nM | CC(C)(C)OC(=O)N1CCN(CCn2cc(-c3ccc(NC(=O)Nc4cc(C(C)(C)C)on4)cc3)c3c(N)ncnc32)CC1 |

More lines, now with the values behind:

| SMILES | IC50 (HL-60) | IC50 [1] | IC50 (BaF3 [2]) | IC50 (MV4-11) | IC50 (BaF3 [3]) | IC50 (BaF3 [4]) | IC50 (MOLM-13) | IC50 (RS4-11) |
| --- | --- | --- | --- | --- | --- | --- | --- | --- |
| CC(C)(C)OC(=O)n1cc(-c2ccc(NC(=O)Nc3cc(C(C)(C)C)on3)cc2)c2c(N)ncnc21 | > 1000 nM | 25 nM | 8.92 nM | 0.107 nM | 12.4 nM | 1.28 nM | 0.081 nM | > 1000 nM |
| CC(C)(C)c1cc(NC(=O)Nc2ccc(-c3cn(CC#N)c4ncnc(N)c34)cc2F)no1 | > 1000 nM | 19 nM | 9.84 nM | 0.422 nM | 86.7 nM | 1.27 nM | 0.73 nM | > 1000 nM |
| C=CCCn1cc(-c2ccc(NC(=O)Nc3cc(C(C)(C)C)on3)cc2)c2c(N)ncnc21 | > 1000 nM | 38 nM | 91.8 nM | 1.75 nM | 176 nM | 4.92 nM | 1.06 nM | > 1000 nM |
| CN(C)CCn1cc(-c2ccc(NC(=O)Nc3cc(C(C)(C)C)on3)cc2)c2c(N)ncnc21 | > 1000 nM | 17 nM | 85 nM | 0.152 nM | 170 nM | 1.62 nM | 0.134 nM | > 1000 nM |
| C=CCCn1cc(-c2ccc(NC(=O)Nc3cc(C(C)(C)C)on3)c(F)c2)c2c(N)ncnc21 | > 1000 nM | 51 nM | 50.2 nM | 3.22 nM | 84.4 nM | 5.41 nM | 1.45 nM | > 1000 nM |
| CCCCCCn1cc(-c2ccc(NC(=O)Nc3cc(C(C)(C)C)on3)cc2)c2c(N)ncnc21 | > 1000 nM | 105 nM | 253 nM | 5.13 nM | 187 nM | 20.7 nM | 3.77 nM | > 1000 nM |
